The numbers were not newly measured in patent publication US20210113548A1, “METHODS FOR DETERMINING A DRUG DOSING REGIMEN” (Clear Creek Bio, Inc., priority 2019, published 2021), which cites them from elsewhere.

Structures are written as SMILES.

Data set [1] concerns solid tumor malignancies. Conditions: administered over a 5-day period followed by a 3-week gap or once per week for three weeks followed by a 1-week gap.
The test system of data set [2] is mouse model of AML.

In the case of `Cc1c(-c2ccc(-c3ccccc3F)cc2)nc2ccc(F)cc2c1C(=O)O` [brequinar, 6-fluoro-2-(2′-fluoro-1,1′ biphenyl-4-yl)-3-methyl-4-quinoline carboxylic acid], the “efficacy in treatment of solid tumor malignancies” value in data set [1] is given as “ineffective”. The “adverse effects of daily administration of high doses” value in data set [2] is “weight loss, anemia, and thrombocytopenia”.
